Data as given in ChEMBL document CHEMBL4420070, “6-6 Fused Bicyclic Heteroaryl Compounds and their Use as LATS Inhibitors” (2018).
The source made the active and inactive calls. The calls are words filed in the database; no cut-off is given here.

What was measured:
[1] = biological target: T1, Serine/threonine-protein kinase LATS1 (Homo sapiens, UniProt O95835); assay: Inhibition of human LATS1 kinase domain (589 to 1130 amino acids) incubated for 30 mins by HTRF assay
T1 sequence (O95835 whole entry): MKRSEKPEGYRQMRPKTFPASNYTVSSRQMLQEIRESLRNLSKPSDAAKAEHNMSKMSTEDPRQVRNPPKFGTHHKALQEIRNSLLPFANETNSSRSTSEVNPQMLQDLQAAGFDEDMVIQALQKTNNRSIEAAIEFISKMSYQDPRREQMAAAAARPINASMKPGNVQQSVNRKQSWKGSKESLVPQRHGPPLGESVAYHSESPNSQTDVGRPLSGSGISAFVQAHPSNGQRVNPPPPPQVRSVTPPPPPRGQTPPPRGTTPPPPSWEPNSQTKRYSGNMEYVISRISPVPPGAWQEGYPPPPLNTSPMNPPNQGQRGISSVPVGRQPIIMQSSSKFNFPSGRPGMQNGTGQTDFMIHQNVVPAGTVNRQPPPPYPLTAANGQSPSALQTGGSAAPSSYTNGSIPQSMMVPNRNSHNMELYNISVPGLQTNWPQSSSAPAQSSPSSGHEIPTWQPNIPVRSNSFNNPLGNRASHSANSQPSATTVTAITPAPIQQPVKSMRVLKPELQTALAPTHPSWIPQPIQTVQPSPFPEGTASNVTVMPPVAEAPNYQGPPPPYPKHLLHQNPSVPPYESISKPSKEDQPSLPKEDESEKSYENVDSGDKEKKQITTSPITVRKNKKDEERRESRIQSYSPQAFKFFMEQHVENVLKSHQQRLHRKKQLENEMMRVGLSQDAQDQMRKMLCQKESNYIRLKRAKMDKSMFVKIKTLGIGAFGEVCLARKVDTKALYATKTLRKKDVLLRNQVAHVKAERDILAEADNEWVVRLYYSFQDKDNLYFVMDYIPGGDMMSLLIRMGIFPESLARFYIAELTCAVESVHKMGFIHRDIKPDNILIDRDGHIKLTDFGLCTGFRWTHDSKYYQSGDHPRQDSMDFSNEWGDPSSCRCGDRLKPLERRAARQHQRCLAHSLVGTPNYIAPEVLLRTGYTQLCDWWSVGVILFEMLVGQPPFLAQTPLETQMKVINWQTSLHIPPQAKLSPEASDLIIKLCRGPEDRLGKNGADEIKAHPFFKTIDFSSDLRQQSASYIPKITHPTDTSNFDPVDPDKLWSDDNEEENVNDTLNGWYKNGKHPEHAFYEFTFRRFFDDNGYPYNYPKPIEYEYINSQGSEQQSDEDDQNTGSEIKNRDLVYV

[2] = biological target: T2, Serine/threonine-protein kinase LATS (Homo sapiens) (UniProt Q9NRM7+O95835); assay: Inhibition of LATS in human limbal epithelial cells assessed as induction of limbal stem cell expansion by measuring expansion factor ratio at 10 uM measured after 2 weeks by p63alpha expression detection based immunohistochemistry relative to control; design: scale not given: the % may be the effect or the level left
[3] = biological target: T2, Serine/threonine-protein kinase LATS (Homo sapiens); assay: Inhibition of LATS in human corneal endothelium cells assessed as induction of cell expansion by measuring cell density at 10 uM by Sytox orange dye based epifluorescence microscopy
[4] = species: Oryctolagus cuniculus; assay: (§1) Induction of tissue regeneration in NZA rabbit with limbal stem cell deficiency transplanted with 10 uM compound treated human limbal stem cells assessed as induction of limbal stem cell population expansion by human mitochondrial protein expression in corneal epithelium of transplanted eyes using compound attached to contact lens using GelMA polymerization and delivered into corneal surface; type: functional, organism-based
[5] = Drug level in post wash cell pellets of human limbal stem cells by LC-MS analysis; type: ADME
[6] = Total drug level in cell pellets of human limbal stem cells by LC-MS analysis; type: ADME
[7] = species: Oryctolagus cuniculus; assay: as §1, with “measuring regeneration of keratin-12-positive” for “human mitochondrial protein expression in”, “epithelium” for “epithelium of transplanted eyes”; type: functional, organism-based
[8] = biological target: T2, Serine/threonine-protein kinase LATS (Homo sapiens); assay: Inhibition of LATS in human limbal epithelial cells assessed as induction of limbal stem cell expansion marker expression by measuring C/EBPdelta protein expression at 10 uM incubated for 8 to 10 days by immunohistochemistry; type: cell-based
[9] = biological target: T2, Serine/threonine-protein kinase LATS (Homo sapiens); assay: Inhibition of LATS in human corneal endothelium cells assessed as induction of cell expansion by measuring AQP1 gene expression at 10 uM incubated for 10 days by RT-PCR analysis
[10] = biological target: T2, Serine/threonine-protein kinase LATS (Homo sapiens); assay: Inhibition of LATS in human limbal epithelial cells assessed as reduction in YAP phosphorylation level at 10 uM incubated for 1 hr by Western blot analysis; type: cell-based; conditions: Epithelial cell
[11] = biological target: T2, Serine/threonine-protein kinase LATS (Homo sapiens); assay: Inhibition of LATS in human limbal epithelial cells assessed as induction of limbal stem cell expansion marker expression by measuring ABCG2 protein expression at 10 uM incubated for 8 to 10 days by immunohistochemistry; type: cell-based
[12] = biological target: T2, Serine/threonine-protein kinase LATS (Homo sapiens); assay: Inhibition of LATS in human limbal epithelial cells assessed as induction of limbal stem cell expansion by measuring p63alpha expression at 10 uM measured after 2 weeks by immunohistochemistry; type: cell-based
[13] = biological target: T2, Serine/threonine-protein kinase LATS (Homo sapiens); assay: Inhibition of LATS in human corneal endothelium cells assessed as induction of cell expansion by measuring Collagen 8a2 gene expression at 10 uM incubated for 10 days by RT-PCR analysis
[14] = biological target: T2, Serine/threonine-protein kinase LATS (Homo sapiens); assay: Inhibition of LATS in human limbal epithelial cells assessed as induction of cell differentiation into corneal epithelial cells by measuring keratin-12 expression at 10 uM incubated for 8 to 10 days followed by medium change to DMEM medium without serum and compound for further incubation for 4 to 8 days by confocal microscopy; type: cell-based
[15] = biological target: T2, Serine/threonine-protein kinase LATS (Homo sapiens); assay: Inhibition of LATS in human corneal endothelium cells assessed as induction of cell expansion by measuring SLC4A11 gene expression at 10 uM incubated for 10 days by RT-PCR analysis
[16] = biological target: T2, Serine/threonine-protein kinase LATS (Homo sapiens); assay: Inhibition of LATS in human limbal epithelial cells assessed as increase in YAP level at 10 uM incubated for 24 hrs by immunostaining based assay; conditions: Epithelial cell
[17] = biological target: T2, Serine/threonine-protein kinase LATS (Homo sapiens); assay: Inhibition of LATS in human limbal epithelial cells assessed as induction of limbal stem cell expansion marker expression by measuring deltaN-p63-alphabetagamma protein expression at 10 uM incubated for 8 to 10 days by immunohistochemistry; type: cell-based
[18] = biological target: T2, Serine/threonine-protein kinase LATS (Homo sapiens); assay: Inhibition of LATS in human corneal endothelium cells assessed as induction of normal corneal endothelial cell morphology at 10 uM incubated for 10 days by immunofluorescence staining based confocal microscopy
[19] = biological target: T2, Serine/threonine-protein kinase LATS (Homo sapiens); assay: Inhibition of LATS in human corneal endothelium cells assessed as induction of cell proliferation measured every 3 hrs for 10 days
[20] = biological target: T2, Serine/threonine-protein kinase LATS (Homo sapiens); assay: Inhibition of LATS in human corneal endothelium cells assessed as induction of cell expansion by measuring Na/K ATPase protein expression at 10 uM incubated for 10 days by immunohistochemistry
[21] = biological target: T2, Serine/threonine-protein kinase LATS (Homo sapiens); assay: Inhibition of LATS in human corneal endothelium cells assessed as reduction in YAP phosphorylation at 10 uM incubated for 1 hr by Western blot analysis
[22] = biological target: T2, Serine/threonine-protein kinase LATS (Homo sapiens); assay: Inhibition of LATS in human corneal endothelium cells assessed as induction of cell expansion by measuring Collagen 8a2 protein expression at 10 uM incubated for 10 days by immunohistochemistry
[23] = biological target: T2, Serine/threonine-protein kinase LATS (Homo sapiens); assay: Inhibition of LATS in human corneal endothelium cells assessed as increase in YAP level at 10 uM incubated for 24 hrs by immunohistochemistry
[24] = biological target: T2, Serine/threonine-protein kinase LATS (Homo sapiens); assay: Inhibition of LATS in human corneal endothelium cells assessed as induction of tight junctions formation by measuring ZO1 expression at 10 uM incubated for 10 days by immunofluorescence staining based confocal microscopy
[25] = test system: Mus musculus; assay: Inhibition of LATS in C57BL/6J mouse assessed as change in Ki67 protein expression level at 30 mg/kg, po administered as single dose measured after 24 hrs by immunohistochemistry analysis relative to control; type: functional
[26] = test system: Mus musculus; assay: Inhibition of LATS in C57BL/6J mouse assessed as change in Cyr61 mRNA expression level at 30 mg/kg, po administered as single dose measured after 2 hrs by qRT-PCR analysis relative to control; type: functional
[27] = test system: Mus musculus; assay: Inhibition of LATS in C57BL/6J mouse assessed as change in CTGF mRNA expression level at 30 mg/kg, po administered as single dose measured after 2 hrs by qRT-PCR analysis relative to control; type: functional
[28] = Drug level in cell pellets of human corneal endothelium cells by LC-MS analysis; type: ADME
[29] = Total drug level in cell pellets of human corneal endothelium cells by LC-MS analysis; type: ADME

T2 sequence (Q9NRM7 whole entry, looked up, one chain of several): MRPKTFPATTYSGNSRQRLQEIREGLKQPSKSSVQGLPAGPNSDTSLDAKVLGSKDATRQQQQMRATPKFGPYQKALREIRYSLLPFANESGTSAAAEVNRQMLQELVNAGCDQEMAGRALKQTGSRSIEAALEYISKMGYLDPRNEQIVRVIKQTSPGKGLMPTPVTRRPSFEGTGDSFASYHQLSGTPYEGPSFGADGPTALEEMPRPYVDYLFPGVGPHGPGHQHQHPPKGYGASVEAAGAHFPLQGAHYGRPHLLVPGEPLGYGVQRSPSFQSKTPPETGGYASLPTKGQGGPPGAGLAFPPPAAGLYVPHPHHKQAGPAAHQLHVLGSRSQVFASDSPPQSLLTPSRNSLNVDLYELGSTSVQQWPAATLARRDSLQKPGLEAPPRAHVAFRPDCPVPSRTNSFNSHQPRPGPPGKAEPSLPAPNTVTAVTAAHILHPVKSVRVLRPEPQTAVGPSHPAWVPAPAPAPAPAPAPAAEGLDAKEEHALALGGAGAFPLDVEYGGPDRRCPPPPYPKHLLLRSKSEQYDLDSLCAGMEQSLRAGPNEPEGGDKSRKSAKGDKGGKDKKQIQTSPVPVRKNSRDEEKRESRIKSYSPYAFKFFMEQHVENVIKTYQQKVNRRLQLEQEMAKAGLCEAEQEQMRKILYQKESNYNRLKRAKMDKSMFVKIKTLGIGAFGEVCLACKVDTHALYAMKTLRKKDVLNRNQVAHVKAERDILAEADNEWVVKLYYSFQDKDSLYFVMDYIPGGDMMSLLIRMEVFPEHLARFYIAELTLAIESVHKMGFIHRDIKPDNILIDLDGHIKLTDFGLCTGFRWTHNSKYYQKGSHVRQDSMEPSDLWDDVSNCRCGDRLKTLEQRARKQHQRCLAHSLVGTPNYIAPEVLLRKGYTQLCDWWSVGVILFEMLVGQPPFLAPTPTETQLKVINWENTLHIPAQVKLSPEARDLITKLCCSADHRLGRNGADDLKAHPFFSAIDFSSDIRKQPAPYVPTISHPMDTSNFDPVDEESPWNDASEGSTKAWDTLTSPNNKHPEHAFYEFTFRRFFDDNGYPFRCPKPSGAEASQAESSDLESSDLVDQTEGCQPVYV

Compound: CN(C)CCC(C)(C)Nc1nc(-c2ccncc2)nc2cnccc12
- IC50 [1]: 1 nM

Compound: O[C@H]1CCC[C@@H]1Nc1nc(-c2ccncc2)nc2cnccc12
- Activity [2]: 57 to 97%
- Activity [3]: 25 /mm2

Compound: CC(C)(CO)Nc1nc(-c2ccncc2)nc2cnccc12
- Activity [2]: 57 to 97%
- Activity [3]: 2500 /mm2

Compound: CC(C)(O)COCC(C)(C)Nc1nc(-c2ccncc2)nc2cnccc12
- Activity [4]: Active
- Drug uptake [5]: 7.32 to 14.4 nM
- Drug uptake [6]: 178 pg
- Activity [7]: Active

Compound: CC(C)(O)CC(C)(C)Nc1nc(-c2ccncc2)nc2cnccc12
- inhibition [8]: Active
- inhibition [9]: Active
- inhibition [10]: Active
- inhibition [11]: Active
- inhibition [12]: Active
- inhibition [13]: Active
- inhibition [14]: Active
- inhibition [15]: Active
- Activity [2]: 57 to 97%
- inhibition [16]: Active
- inhibition [17]: Active
- inhibition [18]: Active
- inhibition [19]: Active
- inhibition [20]: Active
- inhibition [21]: Active
- inhibition [22]: Active
- inhibition [23]: Active
- Activity [3]: 3870 /mm2
- inhibition [24]: Active

Compound: O=C(O)CCCNc1nc(-c2ccncc2)nc2cnccc12
- IC50 [1]: > 2500 nM

Compound: CC(C)N(C)c1nc(-c2ccncc2)nc2cnccc12
- Drug uptake [5]: 13.5 to 46.5 nM
- Drug uptake [6]: 415 pg
- Activity [3]: 3910 /mm2

Compound: c1cc(-c2nc(NCCCc3nnn[nH]3)c3ccncc3n2)ccn1
- fold change (FC) [25]: 3.3
- fold change (FC) [26]: 3.5
- fold change (FC) [27]: 2.1

Compound: C[C@H](N(C)c1nc(-c2ccncc2)nc2cnccc12)C(F)(F)F
- Drug uptake [6]: 340 pg
- Drug uptake [28]: 0.004 to 0.071 nM
- Drug uptake [29]: 0.75 pg

Compound: CC1(C)CC(O)CCN1c1cc(-c2ccncc2Cl)nc2cnccc12 (configuration not stated)
- IC50 [1]: 20 nM

Compound: CCCNc1nc(-c2c[nH]nc2C(F)(F)F)nc2cnccc12
- Activity [2]: 57 to 97%
- Activity [3]: 1890 /mm2

Compound: c1cc(-c2cc(NC3CCCC3)c3ccncc3n2)ccn1
- IC50 [1]: 7 nM
